# According to article PMC5849406 (Pharmacological research, 2017):
# “And” between values parts separate entries of the source, which are not always exact repeats. Equal values may be shown once. Read-outs that look alike come from different tables or passages of the source. Marks after values point to notes of the source that are not given here.
# Tests used:
# [1] = test system: hCB1Rs; experiment: Biased hCB1R signaling: ΔΔlog; design: species or system human; conditions: CHO-β2-hCB1, reference CP-55,940; for GTPγS / β-Arrestin 2 (Operational) Bias Factor: 10^ΔΔlog(τ/KA); for AC / β-Arrestin 2 (Competitive) ΔΔLog(τ/KA) / AC / β-Arrestin 2 (Operational) ΔΔLog(τ/KA) / GTPγS / β-Arrestin 2 (Competitive) ΔΔLog(τ/KA) / GTPγS / β-Arrestin 2 (Operational) ΔΔLog(τ/KA): 95% confidence interval in parentheses
# [2] = biological target: T1, hCB1Rs (Homo sapiens, UniProt P21554); experiment: Forskolin-stimulated intracellular cAMP levels; type: cell-based; conditions: for cAMP Assay Log(τ/KA): Black-Leff operational model; for cAMP Assay pIC50 / cAMP Assay IMAX / IC50: intact CHO-β2-hCB1 cells; for cAMP Assay pIC50 / IC50: 10 µM forskolin; for cAMP Assay IMAX: fraction of the effect produced by the reference agonist CP-55,940; for IC50: read-out: cAMP Assay IC50
# [3] = biological target: T1, hCB1Rs; type: binding; conditions: 0.2 nM [^3H]-CP55,940; for ^3H-CP-55,940 Binding pKi: mean ± S.E.M.; for Ki: read-out: ^3H-CP-55,940 Binding Ki
# [4] = biological target: T1, hCB1Rs; type: cell-based; conditions: for β-Arrestin 2 Assay (Operational) ΔLog(τ/KA): normalized to reference CP-55,940; for β-Arrestin 2 Assay (Operational) Log(τ/KA): operational model; for β-Arrestin 2 Assay EMAX / β-Arrestin 2 Assay pEC50 / EC50: CHO-β2-hCB1 cells; for β-Arrestin 2 Assay EMAX: 90 min, fraction of the effect produced by the reference agonist CP-55,940; for β-Arrestin 2 Assay pEC50 / EC50: 90 min incubation; for EC50: read-out: β-Arrestin 2 Assay EC50
# [5] = biological target: T1, hCB1Rs; experiment: [^35S]GTPγS binding; type: biochemical; conditions: for ^35S-GTPγS Binding Assay ΔLog(τ/KA): CHO-β2-hCB1, normalized to reference CP-55,940, 95% CI printed in the cell; for ^35S-GTPγS Binding Assay EMAX: fraction of the effect produced by the reference agonist CP-55,940; for EC50: read-out: ^35S-GTPγS Binding Assay EC50
# [6] = biological target: T1, hCB1Rs; experiment: CB1 receptor down-regulation after chronic drug exposure; type: cell-based
# [7] = biological target: T1, hCB1Rs; experiment: CB1 receptor desensitization after chronic drug exposure; type: cell-based; conditions: CHO-hCB1-Rx cells; at 1 hr; CP-55,940 10^−7 M or PNR-4-20 10^−5 M
# [8] = test system: hCB1 and hCB2Rs; conditions: ref [29]; cited from earlier work
# [9] = test system: NIH-Swiss mice; experiment: In vivo cannabinoid tetrad; design: species or system mouse
# [10] = CHO-β2-hCB1, 95% CI printed in the cell
# T1 sequence (P21554 whole entry): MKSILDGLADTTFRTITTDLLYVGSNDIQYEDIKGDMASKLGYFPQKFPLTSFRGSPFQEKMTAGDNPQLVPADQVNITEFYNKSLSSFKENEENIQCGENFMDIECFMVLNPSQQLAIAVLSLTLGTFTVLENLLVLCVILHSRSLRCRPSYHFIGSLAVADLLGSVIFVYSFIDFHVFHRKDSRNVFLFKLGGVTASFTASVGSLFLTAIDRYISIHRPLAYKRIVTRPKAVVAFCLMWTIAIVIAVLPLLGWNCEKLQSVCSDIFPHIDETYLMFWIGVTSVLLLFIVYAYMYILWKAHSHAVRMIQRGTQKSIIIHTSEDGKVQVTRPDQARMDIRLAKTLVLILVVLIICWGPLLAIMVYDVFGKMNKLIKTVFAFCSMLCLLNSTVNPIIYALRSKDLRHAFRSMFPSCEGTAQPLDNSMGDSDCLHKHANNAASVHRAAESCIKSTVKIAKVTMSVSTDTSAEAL
SMILES,AC / β-Arrestin 2 (Competitive) Bias Factor [1],AC / β-Arrestin 2 (Operational) Bias Factor [1],GTPγS / β-Arrestin 2 (Competitive) Bias Factor [1],GTPγS / β-Arrestin 2 (Operational) Bias Factor [1],AC / β-Arrestin 2 (Competitive) ΔΔLog(τ/KA) [1],AC / β-Arrestin 2 (Operational) ΔΔLog(τ/KA) [1],GTPγS / β-Arrestin 2 (Competitive) ΔΔLog(τ/KA) [1],GTPγS / β-Arrestin 2 (Operational) ΔΔLog(τ/KA) [1],"cAMP Assay Log(τ/KA) [2, 10]",cAMP Assay pIC50 [2],cAMP Assay IMAX [2],IC50 [2],"^3H-CP-55,940 Binding pKi ([3]; CHO-β2-hCB1 membranes)","β-Arrestin 2 Assay (Operational) ΔLog(τ/KA) [4, 10]","β-Arrestin 2 Assay (Operational) Log(τ/KA) [4, 10]",β-Arrestin 2 Assay EMAX [4],β-Arrestin 2 Assay pEC50 [4],EC50 [4],^35S-GTPγS Binding Assay ΔLog(τ/KA) [5],^35S-GTPγS Binding Assay pEC50 ([5]; CHO-β2-hCB1 membranes),other results
"CCCCCCC(C)(C)c1ccc([C@@H]2C[C@H](O)CC[C@H]2CCCO)c(O)c1 [CP-55,940]",1.00,1.00,1.00,1.0,0.0,0.0,0.0,0.0,,,,,,,,,,,,,
"CCCCCn1cc(C(=O)c2cccc3ccccc23)c2ccccc21 [JWH-018, reference compound]",,0.21,,2.0,,,,0.30 (−0.20 to 0.81),8.56^b (8.17 to 8.94),8.82±0.15^b,0.90±0.05^a,1.73 nM,9.12±0.06^a,0.18^a (−0.15 to 0.51),7.27^a (7.20 to 7.34),1.16 ± 0.16 fractional units and 1.16±0.16^a fractional units,7.17±0.08^a,78.1 nM,−0.12^a (−0.69 to −0.45),9.25±0.23^a,CB1R bias between G protein-dependent and β-arrestin 2 signaling (in words) [1]: little CB1R bias; ^35S-GTPγS Binding Assay EMAX ([5]; CHO-β2-hCB1 membranes): 1.02 ± 0.10 fractional units and 1.02±0.10^a fractional units; EC50 ([5]; CHO-β2-hCB1 membranes): 0.749 nM
O=C1/C(=C/c2cn(Cc3ccc(F)cc3)c3ccccc23)N2CCC1CC2 [PNR-4-20],13.5,29.5,2.5,5.4,1.13 (0.7 to 1.56),1.47 (0.93 to 2.00),0.40 (0.09 to 0.89),0.73 (0.09 to 1.36),6.45^c (6.02 to 6.88),"6.97±0.34^a,c",1.26±0.10^a,180 nM,6.83±0.03^b,−2.72^b (−3.33 to −2.10),4.37^b (3.82 to 4.93),0.24 ± 0.02 fractional units,5.28±0.06^b,5410 nM,−1.99^b (−2.54 to −1.43),7.29±0.09^b,"cAMP Assay ΔLog(τ/KA) ([2]; CHO-β2-hCB1, normalized to reference CP-55,940, 95% CI printed in the cell): −1.25^c (−1.58 to −0.93); ^3H-CP-55,940 Binding pKi ([3]; CHO-hCB1-Rx membranes): 7.11±0.13; Ki ([3]; CHO-hCB1-Rx membranes): 85.1 nM; Ki ([3]; CHO-β2-hCB1 membranes): 159 nM; β-Arrestin 2 Assay (Competitive) Log(τ/KA) ([4]; CHO-β2-hCB1, competitive operational model, 95% CI printed in the cell): 4.84^b (4.53 to 5.16); β-Arrestin 2 Assay EMAX ([4]; listed as PNR-420): 0.24±0.02^b fractional units; effect on β-arrestin 2 recruitment produced by CP-55,940 (co-incubation) ([4]; CP-55,940 10^−7 M, test ligand 10^−7 to 10^−4 M): decreased; effect of chronic exposure on KD of [^3H]-CP-55,940 ([6]; 10 hr exposure, data not shown): does not alter the KD of [^3H]-CP-55,940; reduction in binding (hCB1R density) ([6]; CHO-hCB1-Rx cells, 10 hrs exposure, PNR-4-20 10^−5 M): 42.2 ± 1.7%; maximal reduction of hCB1R density ([6]; CHO-hCB1-Rx cells, PNR-4-20 10^−5 M, 0 to 10 hrs): 76.4 ± 3.6%; maximal reduction of CB1R density ([6]; CHO-β2-hCB1 cells, at 2 hrs, CP-55,940 10^−7 M or PNR-4-20 10^−5 M): 39.7 ± 4.9%; maximal reduction of G protein activation by CP-55,940 (10^−7 M) [7]: 46.0 ± 5.8%; selectivity of binding between hCB1 and hCB2Rs [8]: bind relatively non-selectively to hCB1 and hCB2Rs; activity in the cannabinoid tetrad ([9]; NIH-Swiss mice, 10, 30, or 100 mg/kg i.p., assessed 35 min after injection): exhibits activity consistent with that of a CB1R agonist in all four measures of the cannabinoid tetrad; time of peak hypothermic effects after injection ([9]; mice, radiotelemetry pilot studies, 5-min intervals, data not shown): 35 min; ^35S-GTPγS Binding Assay pEC50 ([5]; CHO-hCB1-Rx membranes): 6.89±0.09; ^35S-GTPγS Binding Assay EMAX ([5]; CHO-β2-hCB1 membranes): 1.02 ± 0.10 fractional units; ^35S-GTPγS Binding Assay EMAX ([5]; CHO-β2-hCB1 membranes, listed as PNR-420): 1.02±0.10^a fractional units; EC50 ([5]; CHO-hCB1-Rx membranes): 130 nM; EC50 ([5]; CHO-β2-hCB1 membranes): 53.9 nM"
"Cc1c(C(=O)NN2CCCCC2)nn(-c2ccc(Cl)cc2Cl)c1-c1ccc(Cl)cc1 [rimonabant, reference compound]",,,,,,,,,,,,,,,,,,,,,"reversal of PNR-4-20 tetrad effects by co-administered antagonist ([9]; rimonabant 10 mg/kg with 100 mg/kg PNR-4-20, i.p., mice): significant reversal of the effects of PNR-4-20 on rectal temperature and catalepsy"
